Molecular target: T1, recombinant human secreted phospholipase A2 (Homo sapiens, UniProt P14555)
T1 sequence (P14555 21-144): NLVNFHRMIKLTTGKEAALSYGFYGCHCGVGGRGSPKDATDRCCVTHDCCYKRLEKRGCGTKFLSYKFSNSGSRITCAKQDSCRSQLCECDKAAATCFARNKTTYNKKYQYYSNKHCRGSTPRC
Assay: Chromogenic assay for inhibitors of recombinant human secreted phospholipase A2 (Assay Example 1)
Format: biochemical
Details: diheptanoyl thio-PC substrate, pH 7.5, absorbance at 405 nm, triplicate
From the text: The following chromogenic assay procedure was used to identify and evaluate inhibitors of recombinant human secreted phospholipase A2. The assay described herein has been adapted for high volume screening using 96 well microtiter plates. A general description of this assay method is found in the article, “Analysis of Human Synovial Fluid Phospholipase A2 on Short Chain Phosphatidylcholine-Mixed Micelles: Development of a Spectrophotometric Assay Suitable for a Microtiterplate Reader”, by Laure J. Reynolds, Lori L. Hughes, and Edward A Dennis, Analytical Biochemistry, 204, pp. 190-197, 1992 (the disclosure of which is incorporated herein by reference):
REACTION BUFFER— • CaCl2·2H2O (1.47 g/L) • KCl (7.455 g/L) • Bovine Serum Albumin (fatty acid free) (1 g/L)(Sigma A-7030, product of Sigma Chemical Co., St. Louis Mo., USA) • TRIS HCl (3.94 g/L) • TRIS=(tris(hydroxymethyl)aminomethane) pH 7.5 (adjust with NaOH)
ENZYME BUFFER— • 0.05 NaOAc·3H2O, pH 4.5 • 0.2 NaCl • Adjust pH to 4.5 with acetic acid
DTNB— • 5,5′-dithiobis-2-nitrobenzoic acid
RACEMIC DIHEPTANOYL THIO—PC • racemic 1,2-bis(heptanoylthio)-1,2-dideoxy-sn-glycero-3-phosphorylcholine • TRITON X-100 prepare at 6.249 mg/ml in reaction buffer to equal […] • TRITON X-100 is a polyoxy ethylene non-ionic detergent supplied by Pierce Chemical Company, 3747 N. Meridian Road, Rockford, Ill. 61101.
REACTION MIXTURE— • A measured volume of racemic dipheptanoyl thio PC supplied in chloroform at a concentration of 100 mg/ml is taken to dryness and redissolved in 10 millimolar TRITON X-100 nonionic detergent aqueous solution. Reaction Buffer is added to the solution, then DTNB to give the Reaction Mixture.
The reaction mixture thus obtained contains 1 mM diheptanoly thio-PC substrate, 0.29 mm TRITON X-100 detergent, and 0.12 mm DTMB in a buffered aqueous solution at pH 7.5.
• 1. Add 0.2 ml reaction mixture to all wells; • 2. Add 10 ul test compound (or solvent blank) to appropriate wells, mix 20 seconds; • 3. Add 50 nanograms of sPLA2 (10 microliters) to appropriate wells; • 4. Incubate plate at 40° C. for 30 minutes; • 5. Read absorbance of wells at 405 nanometers with an automatic plate reader.
All compounds were tested in triplicate. Typically, compounds were tested at a final concentration of 5 ug/ml. […] Lack of color development at 405 nanometers evidenced inhibition. Compounds initially found to be active were reassayed to confirm their activity and, if sufficiently active, IC50 values were determined. […] In all cases, % inhibition measured at 405 nanometers generated by enzyme reactions containing inhibitors relative to the uninhibited control reactions was determined. Each sample was titrated in triplicate and result values were averaged for plotting and calculation of IC50 values. IC50 were determined by plotting log concentration versus inhibition values in the range from 10-90% inhibition.

Compound | IC50
NC(=O)c1cccc2c1c1c(OCC(=O)NO)cccc1n2Cc1ccccc1 [Example 1, [[5-Carbamoyl-9-(phenylmethyl)carbazol-4-yl]oxy]-N-(hydroxy)acetamide] | 18.3 nM
CONC(=O)COc1cccc2c1c1c(C(N)=O)cccc1n2Cc1ccccc1 [Example 2, [[5-Carbamoyl-9-(phenylmethyl)carbazol-4-yl]oxy]-N-(methoxy)acetamide] | 18.7 nM
CCONC(=O)COc1cccc2c1c1c(C(N)=O)cccc1n2Cc1ccccc1 [Example 3, [[5-Carbamoyl-9-(phenylmethyl)carbazol-4-yl]oxy]-N-(ethoxy)acetamide] | 19.3 nM
NC(=O)c1cccc2c1c1c(OCC(=O)NOCc3ccccc3)cccc1n2Cc1ccccc1 [Example 4, [[5-Carbamoyl-9-(phenylmethyl)carbazol-4-yl]oxy]-N-[(phenylmethyl)oxy]acetamide] | 17 nM
CON(C)C(=O)COc1cccc2c1c1c(C(N)=O)cccc1n2Cc1ccccc1 [Example 5, [[5-Carbamoyl-9-(phenylmethyl)carbazol-4-yl]oxy]-N-(methoxy)-N-(methyl)acetamide] | 42.5 nM
NC(=O)c1cccc2c1c1c(OCC(=O)NOCc3ccccc3)cc(-c3cccs3)cc1n2Cc1ccccc1 [Example 7, [[5-Carbamoyl-9-(phenylmethyl)-2-(thien-2-yl)carbazol-4-yl]oxy]-N-[(phenylmethyl)oxy]acetamide] | 29 nM

Source: patent US6933313B2, “Substituted carbazoles as inhibitors of sPLA2” (Eli Lilly and Company, priority 2001, dated 2005)
